{"source": "paper PMC6100543", "about": "“Parthenolide Inhibits STAT3 Signaling by Covalently Targeting Janus Kinases” (Molecules : A Journal of Synthetic Chemistry and Natural …, 2018)", "target": "T1, JAK2 (Mus musculus, UniProt Q62120)", "T1 construct": "JAK2-FLAG, overexpressed in HEK293 and immunoprecipitated", "T1 sequence (Q62120 whole entry)": "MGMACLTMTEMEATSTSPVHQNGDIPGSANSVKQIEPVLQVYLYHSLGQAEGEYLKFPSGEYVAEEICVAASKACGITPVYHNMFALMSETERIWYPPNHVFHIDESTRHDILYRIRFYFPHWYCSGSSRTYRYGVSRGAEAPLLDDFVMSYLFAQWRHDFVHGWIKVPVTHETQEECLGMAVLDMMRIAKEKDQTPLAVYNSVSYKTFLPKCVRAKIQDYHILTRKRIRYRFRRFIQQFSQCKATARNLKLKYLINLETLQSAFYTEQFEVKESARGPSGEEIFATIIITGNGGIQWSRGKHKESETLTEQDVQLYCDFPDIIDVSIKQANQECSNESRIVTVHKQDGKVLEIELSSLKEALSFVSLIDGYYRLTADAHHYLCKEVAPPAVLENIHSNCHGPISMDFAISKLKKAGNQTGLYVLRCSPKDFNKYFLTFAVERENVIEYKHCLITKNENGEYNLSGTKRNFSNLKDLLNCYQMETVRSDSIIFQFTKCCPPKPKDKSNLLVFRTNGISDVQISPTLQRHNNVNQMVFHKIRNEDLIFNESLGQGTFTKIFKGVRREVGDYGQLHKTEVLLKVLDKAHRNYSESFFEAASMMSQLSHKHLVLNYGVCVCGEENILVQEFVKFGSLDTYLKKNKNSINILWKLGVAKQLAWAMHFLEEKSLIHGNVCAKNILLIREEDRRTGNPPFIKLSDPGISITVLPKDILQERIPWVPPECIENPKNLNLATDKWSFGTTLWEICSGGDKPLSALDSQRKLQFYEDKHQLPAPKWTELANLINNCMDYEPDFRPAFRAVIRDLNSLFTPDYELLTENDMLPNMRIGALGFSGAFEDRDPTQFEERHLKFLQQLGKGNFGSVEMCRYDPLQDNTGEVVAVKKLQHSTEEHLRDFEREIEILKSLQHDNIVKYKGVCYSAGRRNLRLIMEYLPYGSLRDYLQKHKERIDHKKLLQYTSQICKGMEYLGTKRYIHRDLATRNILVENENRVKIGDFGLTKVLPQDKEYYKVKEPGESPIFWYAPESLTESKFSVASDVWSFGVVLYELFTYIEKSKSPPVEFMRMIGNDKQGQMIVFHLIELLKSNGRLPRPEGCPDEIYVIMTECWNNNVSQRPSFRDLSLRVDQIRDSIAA", "assay": "in vitro kinase assay with immunoprecipitated JAK2-FLAG; LC-MS/MS of PN-modified tryptic peptides", "format": "biochemical"}
{"smiles": "C=C1C(=O)O[C@H]2[C@H]1CC/C(C)=C/CC[C@@]1(C)O[C@@H]21", "note": "[PN, parthenolide]", "values": [{"measurement": "IC50", "value": 3.94, "unit": "µM"}]}
